# Source: patent publication US9862690B2, “Treatment of pulmonary and other conditions” (University of Pittsburgh—of the Commonwealth System of …, priority 2013, dated 2018)
# Assays:
# [1] = Nebulization of PB141: aerosol droplet size by Andersen cascade impactor; format: physicochemical; settings: dissolved in water or PBS; micropump nebulizer, 10 L of air/min
# Method: PB141 was dissolved in water or different concentrations of PBS and the solutions were aerosolized using a micropump nebulizer (Buxco Research Systems, Wilmington, N.C.) flowing at 10 L of air/min. Aerosol droplet size was measured with an Andersen cascade impactor. (A) Distribution of PB141 aerosol droplet sizes. (B) The concentration of PB141 during a 30 min nebulization period was measured by collecting samples during nebulization and analyzing by spectrophotometer in two independent experiments.
# PB141 was dissolved in water or different concentrations of PBS and aerosols were generated using a micropump nebulizer (Buxco Research Systems, Wilmington, N.C.) flowing at 10 L of air/min. Aerosol droplet size was measured with an Andersen cascade impactor. The concentration of PB141 during a 30-min nebulization period was measured by collecting samples during nebulization and analyzing them by spectrophotometer in […]. […] Nebulization was optimal for a solution of PB141 in 2% saline, although a formulation in pure water was also effective.
# [2] = FRAP assay (ferric reduction/anti-oxidant power); format: biochemical; settings: 10 μmol compound, 5 min, 593 nm; Troxol reference
# Method: The antioxidant activity of PB141 was determined by ferric reduction/anti-oxidant power (FRAP) assay in which the compound is reacted with ferric tripyridyltriazine complex. Data are representative of one of two independent experiments; n=3; *** P<0.001 versus Troxol.
# The antioxidant activity of PB141 or PB157 was determined by ferric reduction/anti-oxidant power (FRAP) assay in which the compounds are reacted with ferric tripyridyltriazine complex. The ferric complex was prepared at room temperature by reaction of ferric chloride (16.7 mmol) and 2,4,6-trispyridyl-s-triazine (8.33 mmol) in pH 3.6 acetate buffer (0.25 M). The FRAP reagent was used immediately after preparation. PB141 or PB157 (10 μmol) was added to the FRAP reagent (1 ml) and mixed by vortexing. The reaction was allowed to stabilize for 5 min and the absorbance was measured. The antioxidant activities of these compounds were determined by the ability to reduce the ferric complex to a […] ferrous complex, monitored at 593 nm. Troxol (10 μmol) was used as reference standard.
# [3] = molecular target: T1, p65 subunit of NF-κB (Homo sapiens, UniProt Q04206); experiment: LPS-induced NF-κB p65 DNA-binding activity in BEAS-2B cells; format: cell-based; settings: 1 h pre-treatment, then LPS 6 h
# T1 construct: endogenous in cells; host or cells: BEAS-2B
# T1 sequence (Q04206 whole entry): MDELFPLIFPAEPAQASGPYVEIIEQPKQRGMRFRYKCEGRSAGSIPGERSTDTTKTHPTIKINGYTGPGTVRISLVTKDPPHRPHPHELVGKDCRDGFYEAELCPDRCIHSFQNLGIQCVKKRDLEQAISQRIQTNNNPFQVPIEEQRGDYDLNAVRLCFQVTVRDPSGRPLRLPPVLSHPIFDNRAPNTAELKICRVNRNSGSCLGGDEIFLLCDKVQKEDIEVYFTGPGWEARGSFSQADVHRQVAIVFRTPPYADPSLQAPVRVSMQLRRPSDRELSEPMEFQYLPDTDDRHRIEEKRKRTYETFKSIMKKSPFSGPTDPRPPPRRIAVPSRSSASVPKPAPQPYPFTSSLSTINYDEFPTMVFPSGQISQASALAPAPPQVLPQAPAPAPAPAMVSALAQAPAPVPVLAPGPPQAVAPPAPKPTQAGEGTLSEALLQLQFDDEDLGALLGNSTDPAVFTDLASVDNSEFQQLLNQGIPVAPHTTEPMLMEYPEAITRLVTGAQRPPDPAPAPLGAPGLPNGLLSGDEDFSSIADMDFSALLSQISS
# Method: BEAS-2B cells were treated with varying concentrations of PB141 for 24 h, after which (A) Nrf2 activity was measured or (C) nuclear Nrf2 concentration was determined by Western blotting. (B) In other experiments cells were pretreated with varying concentrations of PB141 for 1 h, then with LPS (500 ng/ml) for 6 h. Cells were then isolated and activity of NF-κB was measured.
# BEAS-2B cells were cultured in Dulbecco's modified Eagle's medium (DMEM) containing 10% heat-inactivated fetal bovine serum, penicillin, and streptomycin (100 IU/ml). Monolayer cultures were treated with different concentrations of PB141 for 24 h. Cells were then isolated and the DNA-binding activity of the antioxidant transcription factor Nrf2 was determined. The nuclear concentration of Nrf2 was also determined by Western blotting. […] In some experiments monolayer cultures were deprived of serum for 24 h, pre-treated with different concentrations of PB141 for 1 h, then exposed to LPS for 6 h. Nuclear proteins were prepared and were used to quantify DNA-binding activity of the p65 subunit of NF-κB.
# [4] = system: alveolar macrophages; experiment: Gene expression in alveolar macrophages isolated from BAL fluid of treated mice (real-time PCR); format: in vivo; settings: mice given LPS then 25 mg/kg nebulized
# Method: Induction of ALI by intratracheal injection of LPS (50 μg) was followed 30 min later by nebulization of PB141 (25 mg/kg) or vehicle (saline) and delivery to cage air via a micropump nebulizer. After another 5.5 h BAL fluid was obtained. Alveolar macrophages were isolated from the BAL fluid and plated in DMEM+10% FBS. After 1 h, RNA was isolated and expression of the indicated genes was determined using real-time PCR; results were normalized to values for the housekeeping genes glyceraldehyde-3-phosphate dehydrogenase (GAPDH) and […]. Data are representative of one of two independent experiments with n=6-8 mice per group; **P<0.01; ***P<0.001.
# For additional in vitro studies, after the treatment described above alveolar macrophages were isolated from the BAL fluid and plated in DMEM+10% FBS. After 1 h, RNA was isolated and expression of the different genes was determined using real-time PCR; results were normalized to values for the housekeeping genes glyceraldehyde-3-phosphate dehydrogenase (GAPDH) and […]. […] In other experiments, PMNs were isolated from peripheral blood of endotoxin-treated mice by hetastarch exchange transfusion. PMN adhesion was assessed with the Cytoselect Leukocyte-Endothelium Adhesion Assay kit (CBA-210; Cell Biolabs) and transendothelial PMN migration was determined with the Cytoselect Leukocyte Transmigration Assay kit (CBA-212; Cell Biolabs).
smiles,measurement,setting,value
CC(=O)N[C@@H](CSC(CC(=O)CC(SC[C@H](NC(C)=O)C(=O)O)c1cnccn1)c1cnccn1)C(=O)O (stereo partly drawn) [PB141],Aerosol droplet size,[1],1-2 μm
same,Antioxidant activity (reduction of ferric complex),[2],highly significant and approximately equal
same,Inhibition of NF-κB activity at 1 μM,[3]; 1 μM,almost complete inhibition
same,NF-κB activity (p65 DNA-binding),[3]; different concentrations,inhibited NF-κB activity in a concentration-dependent manner
same,Transcription of antioxidant genes in alveolar macrophages,[4],increased
same,Transcription of inflammatory genes in alveolar macrophages,[4],decreased
